Measurements taken from patent publication US20050214738A1, “Conditional allele system” (priority 2003, published 2005).

What was measured:
KTF = target: T1, KTF (Homo sapiens, UniProt P42345+P62942, W2101F); assay: SeAP transcriptional switch assay, FRB mutant KTF; format: cell-based
T1 construct: The minimal FRB domain comprises amino acids 2025-2114 of human mTor; expressed in transfected cells; host or cells: COS1 cells
Method: Drug efficacy was determined in a three-plasmid transcriptional switch reporter assay. ˜106 COS1 cells were coelectroporated with 2 μg of the DNA binding construct pBJ5-Gal4-FKBP(3), 2 μg pBJ5-VP16 (or the relevant mutant FRB) and 2 μg of the Gal4-SeAP reporter. Electroporation details are available upon request. Cells were immediately aliquoted to 2 or 3×96 well plates with flat bottoms. After 24 hours incubation media was supplemented with a rapalog in triplicate and in serial two fold dilutions. Following 24 hours further incubation, cells with media were wrapped carefully in plastic wrap and heated to 65° C. for two hours to inactivate endogenous phosphatases. 50 μL of media was transferred to a black 96 well plate (Costar 3915) and supplemented with 1 mM methylumbelliferrylphosphate (Sigma, St. Louis, Mo.) in 1M diethanolamine (pH 10.0 with carbonate). After 16 hours incubation at 37° C. SeAP activity was measured by fluorescence with a Spectamax M2 fluorometer (Molecular Devices, Sunnyvale, Calif.) with transmission set at 355 nm and emmission set at 460 nm. Data was analysed with Softmax Pro (Molecular Devices), Microsoft Excel and Prism 3 (GraphPad Software).

GSK-3βFRB* [1] = target: T2, GSK-3βFRB* (UniProt P26883+P42345, K2095P/T2098L/W2101F); assay: Inducible stabilization of GSK-3βFRB* in knock-in MEFs (Western blot); format: cell-based, mouse; parameters: The minimal FRB domain comprises amino acids 2025-2114 of human mTor; endogenous in cells; host or cells: MEFs from GSK-3β^FRB* knock-in mice (fusion expressed from the targeted endogenous locus)
Method: MEFs cell lines were prepared from E14.5-E16.5 embryos of indicated genotypes by eviscerating the embryos in HBSS, treating the remaining tissue with 0.2% collagenase and trypsin, and plating the cells in DMEM containing 10% FCS, antibiotics, and 0.1 mM β-mercaptoethanol. Once established, the MEFs were cultured using standard techniques and treated with various small molecules as indicated.
Western Blot analysis was carried out using cell lysates prepared in RIPA buffer (10 mM Tris pH 7.2, 150 mM NaCl, 0.1% SDS, 1% Triton X-100, 1% deoxycholate, 5 mM EDTA, protease inhibitor cocktail (Invitrogen Life Technologies)) and then separated using standard SDS/PAGE before being transferred to PVDF (Millipore) using standard Western blotting procedures. The anti-GSK-3β antibody, used at 1:2500, the anti-HSP-90 antibody, 1:2500, and the anti-FKBP12 antibody, 1:2500, were purchased from BD Transduction Labs. The anti-β-catenin antibody, 1:2000, and anti-HSP-70 antibody, 1:1000 were purchased from Santa Cruz Biotechnology. […] In all cases, Western blots were incubated overnight with the appropriate primary antibodies in TBST (10 mM Tris 8.0, 150 mM NaCl, 0.1% Tween-20) containing 10% dry milk, and then washed 3 times with TBST. The blots were subsequently incubated for 30 minutes with HRP-conjugated secondary antibodies from Jackson Immunoresearch, washed 3 more times with TBST, and then developed using standard ECL reagents (Amersham Biosciences) and Kodak XAR film.

mutant FRBs = target: T3, mutant FRBs (Homo sapiens, UniProt P42345, K2095T/T2098L); assay: SeAP transcriptional switch assay, panel of FRB mutants at 2095, 2098, 2101; format: cell-based; details: TLW
T3 construct: The minimal FRB domain comprises amino acids 2025-2114 of human mTor; expressed in transfected cells; host or cells: COS1 cells
Method: All FRB mutants were prepared by the Quikchange mutagenesis method (Stratagene) using protocols provided by the manufacturer. Briefly, PCR reactions containing the parent plasmid pBJ5-FRB-VP16-HA or pBJ5-FRB*-VP16-HA and overlapping oligonucleotides containing the relevant base changes were performed with Pfu polymerase (Stratagene, San Diego, Calif.). PCR reactions were digested with the methylation sensitive restriction endonuclease Dpn1 to eliminate the parent plasmid and the reaction was transformed in XL10-Gold Ultracompetent E. coli (Stratagene).
Electroporation details are available upon request. Cells were immediately aliquoted to 2 or 3×96 well plates with flat bottoms. […] Data was analysed with Softmax Pro (Molecular Devices), Microsoft Excel and Prism 3 (GraphPad Software).

GSK-3βFRB* [2] = target: T2, GSK-3βFRB*; assay: Stabilization of transfected GSK-3β FRB* in MEFs (Western blot); format: cell-based, mouse; parameters: The minimal FRB domain comprises amino acids 2025-2114 of human mTor; GSK-3β (fusion partner); expressed in transfected cells; host or cells: wild-type mouse embryonic fibroblasts (MEFs); details: transiently transfected MEFs, drug for 36 h
Method: MEFs were transfected using FuGENE-6 (Roche Applied Science). Plasmid DNA (5 μg per 6 cm dish) was mixed in a 1:2 ratio with the FuGENE-6 reagent in Opti-MEM (Invitrogen Life Technologies) before being applied to the cells growing in DMEM/10% FCS and containing C20-MaRap where appropriate. After 12 hours, the cells were split to 6 well plates before further drug treatments to ensure each well contained an equivalently transfected population.
Western Blot analysis was carried out using cell lysates prepared in RIPA buffer (10 mM Tris pH 7.2, 150 mM NaCl, 0.1% SDS, 1% Triton X-100, 1% deoxycholate, 5 mM EDTA, protease inhibitor cocktail (Invitrogen Life Technologies)) and then separated using standard SDS/PAGE before being transferred to PVDF (Millipore) using standard Western blotting procedures. The anti-GSK-3β antibody, used at 1:2500, the anti-HSP-90 antibody, 1:2500, and the anti-FKBP12 antibody, 1:2500, were purchased from BD Transduction Labs. The anti-β-catenin antibody, 1:2000, and anti-HSP-70 antibody, 1:1000 were purchased from Santa Cruz Biotechnology. The anti-BRG1 antibody, 1:1000, was previously prepared in our laboratory (Khavari, P. A. et al. “BRG1 Contains a Conserved Domain of the SWI2/SNF2 Family Necessary for Normal Mitotic Growth and Transcription.” (1993) Published in Nature 366, 170-174). […]

T2 sequence (P42345 2025-2114 K2095P/T2098L/W2101F): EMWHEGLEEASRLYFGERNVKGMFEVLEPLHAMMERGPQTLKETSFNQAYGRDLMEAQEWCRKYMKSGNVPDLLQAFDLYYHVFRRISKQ
T2 sequence (P26883 2-108): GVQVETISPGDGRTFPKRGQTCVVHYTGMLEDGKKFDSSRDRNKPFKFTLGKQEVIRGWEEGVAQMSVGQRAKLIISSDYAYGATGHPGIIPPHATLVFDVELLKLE
T1 sequence (P42345 2025-2114 W2101F): as the sequence (P42345 2025-2114 K2095P/T2098L/W2101F) above, with P71K, L74T counted along it
T1 sequence (P62942 whole entry, the tested form may be a part): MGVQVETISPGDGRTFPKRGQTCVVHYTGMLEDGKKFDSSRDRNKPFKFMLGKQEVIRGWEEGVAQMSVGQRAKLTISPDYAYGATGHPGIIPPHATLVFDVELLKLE
T3 sequence (P42345 2025-2114 K2095T/T2098L): as the sequence (P42345 2025-2114 K2095P/T2098L/W2101F) above, with P71T, F77W counted along it
T3 sequence (P62942 2-108 partner): as the sequence (P26883 2-108) above, with T49M, I75T, S78P counted along it

## C20-(R or S)-methallylrapamycin [C20-MaRap]
KTF
  binding to KTF: binds efficiently
KTF; single mutation Trp2101 to Phe
  EC50: 9 nM
GSK-3βFRB* [1]; GSK-3βFRB*/FRB* MEFs, 36 hour treatment, 100 nM
  GSK-3βFRB* levels: restored GSK-3βFRB* levels
GSK-3βFRB* [1]; MEFs
  effect on wild-type GSK-3β, β-catenin, or HSP-90 expression: neither drug had an effect
GSK-3βFRB* [1]; doubly homozygous GSK-3βFRB* and FKBP12IM, 100 nM 36 hours
  stabilization in fibroblasts lacking detectable FKBP12 expression: complete loss of C20-MaRap-induced stabilization
GSK-3βFRB* [1]; heterozygous MEFs, 100 nM
  time of half maximal stabilization: 8 to 12 h
  time to complete stabilization: approximately 24 hours
Mutant FRBs
  binding to the TLW mutant: inefficiently
GSK-3βFRB* [2]
  GSK-3β FRB* expression: restored GSK-3β FRB* expression to normal
